Test results from patent publication US20210298307A1 (priority 2020, published 2021).
Read-outs that look alike come from different tables or passages of the source. Marks after values point to notes of the source that are not given here.

What was measured:
Ralstonia solanacearum = assay type: in vivo; details: beef tomato, foliar spray at 3 and 10 dpi, 5 mg/L IBA and/or 15 mg/L Kinetin in 0.1% (v/v) Tween 80; for Severity score at days post infection (dpi): 9 / Severity score at days post infection (dpi): 11 / Severity score at days post infection (dpi): 13: 0-5 disease scale, mean n=12; for Severity score at days post infection (dpi): 9: 9 dpi; for Severity score at days post infection (dpi): 11: 11 dpi; for Severity score at days post infection (dpi): 13 / Survival Rate (13 dpi): 13 dpi; for Survival Rate (13 dpi): n=12
R. solanacearum [1] = assay type: in vivo, Ralstonia solanacearum; details: beef tomato, soil drench at 3 and 10 dpi, 5 mg/L IBA and/or 15 mg/L Kinetin; for Severity score at days post infection (dpi): 9 / Severity score at days post infection (dpi): 11 / Severity score at days post infection (dpi): 13: 0-5 disease scale, mean n=12; for Severity score at days post infection (dpi): 9: 9 dpi; for Severity score at days post infection (dpi): 11: 11 dpi; for Severity score at days post infection (dpi): 13 / Survival Rate (13 dpi): 13 dpi; for Survival Rate (13 dpi): n=12
R. solanacearum [2] = assay type: in vivo, Ralstonia solanacearum; details: beef tomato, soil drench before inoculation and at 3 and 10 dpi, 5 mg/L IBA and/or 20 mg/L Kinetin; for Severity score at days post infection (dpi): 9 / Severity score at days post infection (dpi): 11 / Severity score at days post infection (dpi): 13: 0-5 disease scale, mean n=12; for Severity score at days post infection (dpi): 9: 9 dpi; for Severity score at days post infection (dpi): 11: 11 dpi; for Severity score at days post infection (dpi): 13 / Survival Rate (13 dpi): 13 dpi; for Survival Rate (13 dpi): n=12

SMILES | Severity score at days post infection (dpi): 9 (Ralstonia solanacearum) | Severity score at days post infection (dpi): 11 (Ralstonia solanacearum) | Severity score at days post infection (dpi): 13 (Ralstonia solanacearum) | Survival Rate (13 dpi) (Ralstonia solanacearum) [%] | Severity score at days post infection (dpi): 9 (R. solanacearum [1]) | Severity score at days post infection (dpi): 11 (R. solanacearum [1]) | Severity score at days post infection (dpi): 13 (R. solanacearum [1]) | Survival Rate (13 dpi) (R. solanacearum [1]) [%] | Severity score at days post infection (dpi): 9 (R. solanacearum [2]) | Severity score at days post infection (dpi): 11 (R. solanacearum [2]) | Severity score at days post infection (dpi): 13 (R. solanacearum [2]) | Survival Rate (13 dpi) (R. solanacearum [2]) [%]
O=C(O)CCCc1c[nH]c2ccccc12 [IBA, indole-3-butyric acid] | 0.25* | 2.50 | 3.25 | 58 | 0.25* | 1.00* | 2.50 | 67 | 0.92 | 1.58 | 2.17* | 75
c1coc(CNc2ncnc3nc[nH]c23)c1 [Kinetin, N6-furfuryladenine] | 0.42 | 2.08 | 3.17 | 58 | 0.25* | 1.08* | 2.58 | 75 | 0.83 | 1.42 | 2.08* | 75
